Holding throughout (format): cell-based
Assay [1] relates to Pseudomonas RL 112. The experiment in a line: MIC, in vitro dilution method, Pseudomonas RL 112 (Table III). The settings on record: RL112. From the text:
(§1) The products of the invention have been studied as regards their pharmacological properties and, more especially, bacteriostatic action. This has been determined in vitro by the dilution method, and the study was on Gram negative strains.
(§2) Results, expressed in minimum inhibiting concentrations (MIC-- μg/ml), are collected in the following table (Table III).

In assay [2] the test system is Citrobacter RL 49. The experiment in a line: MIC, in vitro dilution method, Citrobacter RL 49 (Table III). The settings on record: RL49; Citrobacter RL 49; dilution method; read-out: MIC.
Source text: as §1, §2

The test system of assay [3] is Proteus vulgaris RL 99 bis. The experiment in a line: MIC, in vitro dilution method, Proteus vulgaris RL 99 bis (Table III). The settings on record: RL99BIS; Proteus vulgaris RL 99 bis; dilution method; read-out: MIC.
Source text: as §1, §2

Assay [4] has as its system Enterobacter RO 154. The experiment in a line: MIC, in vitro dilution method, Enterobacter RO 154 (Table III). The settings on record: RO154; Enterobacter RO 154; dilution method; read-out: MIC.
Source text: as §1, §2

For assay [5], the system named is Serratia RL 72. The experiment in a line: MIC, in vitro dilution method, Serratia RL 72 (Table III). The settings on record: RL72.
Source text: as §1, §2

Assay [6] concerns Escherichia coli SOL 90. The experiment in a line: MIC, in vitro dilution method, Escherichia coli SOL 90 (Table III). The settings on record: SOL90; Escherichia coli SOL 90; dilution method; read-out: MIC.
Source text: as §1, §2

Assay [7] concerns Klebsiella RO 30. The experiment in a line: MIC, in vitro dilution method, Klebsiella RO 30 (Table III). The settings on record: RO30; Klebsiella RO 30; dilution method; read-out: MIC.
Source text: as §1, §2

The structures appear in SMILES notation. In brackets after ≈: the same amount, converted by molar mass.

Our source for the MIC values is patent publication US4656166A, “Antibiotic compounds derived from cephalosporins, process for their production and pharmaceutical compositions” (Sanofi, priority 1983, dated 1987).

The MIC is the smallest concentration in the dilution series that meets the test's criterion for growth inhibition. `CNCCCCC(=O)OCC1=C(C(=O)O)N2C(=O)C(NC(=O)/C(=N\OC(C)(C)C(=O)O)c3csc(N)n3)C2[S+]([O-])C1` (stereo not drawn) [42 029]: the MIC was 8 µg/mL (≈ 13 µM) in assay [1]; 0.25 µg/mL (≈ 0.407 µM) in assay [2]; at most 0.12 µg/mL in assay [3]; 2 µg/mL (≈ 3.25 µM) in assay [4]; 0.5 µg/mL (≈ 0.813 µM) in assay [5]; 0.25 µg/mL (≈ 0.407 µM) in assay [6]. For the same compound, the MIC in assay [7] is 0.25 µg/mL (≈ 0.407 µM).

With `Nc1nc(/C(=N/OC2(C(=O)O)CCC2)C(=O)NC2C(=O)N3C(C(=O)O)=C(COC(=O)CC4CCCNC4)C[S+]([O-])C23)cs1` (stereo not drawn) [42 472], the MIC in assay [1] is 4 µg/mL (≈ 6.26 µM); in assay [2], at most 0.125 µg/mL; in assay [3], at most 0.125 µg/mL; in assay [4] it was at most 0.125 µg/mL; in assay [5], 0.25 µg/mL (≈ 0.391 µM); in assay [6] it was 0.25 µg/mL (≈ 0.391 µM). In assay [7], the minimum inhibitory concentration (MIC) was at most 0.125 µg/mL.

As to `CC(O)C(N)C(=O)OCC1=C(C(=O)O)N2C(=O)C(NC(=O)C(=NOC(C)(C)C(=O)O)c3csc(N)n3)C2[S+]([O-])C1` (stereo not drawn) [41 885], the minimal inhibitory concentration (MIC) in assay [1] is 8 µg/mL (≈ 13.3 µM); in assay [2], 4 µg/mL (≈ 6.64 µM); in assay [3], 0.5 µg/mL (≈ 0.83 µM); in assay [4] it was 8 µg/mL (≈ 13.3 µM); in assay [5], 4 µg/mL (≈ 6.64 µM); in assay [6], 1 µg/mL (≈ 1.66 µM). Further, the MIC in assay [7] came to 0.5 µg/mL (≈ 0.83 µM).

For `CSCC[C@H](N)C(=O)OCC1=C(C(=O)O)N2C(=O)C(NC(=O)/C(=N\OC(C)(C)C(=O)O)c3csc(N)n3)C2[S+]([O-])C1` (stereo partly drawn) [41 887], the MIC was 8 µg/mL (≈ 12.6 µM) in assay [1]; 4 µg/mL (≈ 6.32 µM) in assay [2]; 0.25 µg/mL (≈ 0.395 µM) in assay [3]; 8 µg/mL (≈ 12.6 µM) in assay [4]; 4 µg/mL (≈ 6.32 µM) in assay [5]; 2 µg/mL (≈ 3.16 µM) in assay [6]. Besides, the MIC in assay [7] was determined as 0.5 µg/mL (≈ 0.79 µM).

Turning to `CNCc1cccc(C(=O)OCC2=C(C(=O)O)N3C(=O)C(NC(=O)/C(=N\OC(C)(C)C(=O)O)c4csc(N)n4)C3[S+]([O-])C2)c1` (stereo not drawn) [42 537], the MIC in assay [1] is 8 µg/mL (≈ 12.3 µM); in assay [2] it was 0.25 µg/mL (≈ 0.385 µM); in assay [3], at most 0.125 µg/mL; in assay [4], 0.25 µg/mL (≈ 0.385 µM); in assay [5] it was 0.5 µg/mL (≈ 0.771 µM); in assay [6] it was 0.25 µg/mL (≈ 0.385 µM). Further, the MIC in assay [7] is 0.25 µg/mL (≈ 0.385 µM).

Turning to `CC(C)(ON=C(C(=O)NC1C(=O)N2C(C(=O)O)=C(COC(=O)C3CCCCC3CN)C[S+]([O-])C12)c1csc(N)n1)C(=O)O` (stereo not drawn) [42 321], the MIC was 8 µg/mL (≈ 12.5 µM) in assay [1]; 0.5 µg/mL (≈ 0.78 µM) in assay [2]; at most 0.125 µg/mL in assay [3]; 0.25 µg/mL (≈ 0.39 µM) in assay [4]; 1 µg/mL (≈ 1.56 µM) in assay [5]; 0.5 µg/mL (≈ 0.78 µM) in assay [6]. In assay [7], the MIC turned out to be 0.5 µg/mL (≈ 0.78 µM).

Turning to `Cc1ccc(CN)c(C)c1C(=O)OCC1=C(C(=O)O)N2C(=O)C(NC(=O)C(=NOC3(C(=O)O)CCC3)c3csc(N)n3)C2[S+]([O-])C1` (stereo not drawn) [42 541], the MIC in assay [1] was 4 µg/mL (≈ 5.93 µM); in assay [2], 0.25 µg/mL (≈ 0.371 µM); in assay [3], at most 0.125 µg/mL; in assay [4] it was 0.25 µg/mL (≈ 0.371 µM); in assay [5], 0.5 µg/mL (≈ 0.741 µM); in assay [6], 0.5 µg/mL (≈ 0.741 µM). For the same compound, the minimum inhibitory concentration (MIC) in assay [7] is at most 0.125 µg/mL.

Consider `CC(O/N=C(\C(=O)NC1C(=O)N2C(C(=O)O)=C(COC(=O)C3CCNCC3)C[S+]([O-])C12)c1csc(N)n1)C(=O)O` (stereo not drawn) [42 215], for which the MIC in assay [1] was 8 µg/mL (≈ 13.4 µM); in assay [2], at most 0.12 µg/mL; in assay [3], at most 0.12 µg/mL; in assay [4] it was at most 0.12 µg/mL; in assay [5], 0.25 µg/mL (≈ 0.418 µM); in assay [6], at most 0.12 µg/mL. Further, in assay [7], the MIC is at most 0.12 µg/mL.

Regarding `Nc1nc(/C(=N/OC2(C(=O)O)CCC2)C(=O)NC2C(=O)N3C(C(=O)O)=C(COC(=O)CC4CCNCC4)C[S+]([O-])C23)cs1` (stereo not drawn) [42 473], the MIC in assay [1] is 4 µg/mL (≈ 6.26 µM); in assay [2] it was at most 0.125 µg/mL; in assay [3], at most 0.125 µg/mL; in assay [4] it was at most 0.125 µg/mL; in assay [5], 0.25 µg/mL (≈ 0.391 µM); in assay [6] it was 0.25 µg/mL (≈ 0.391 µM). Further, the MIC in assay [7] was at most 0.125 µg/mL.

Consider `Cc1ccc(C(=O)OCC2=C(C(=O)O)N3C(=O)C(NC(=O)/C(=N\OC(C)(C)C(=O)O)c4csc(N)n4)C3[S+]([O-])C2)cc1CN` (stereo not drawn) [42 379], for which the MIC is 8 µg/mL (≈ 12.3 µM) in assay [1]; at most 0.125 µg/mL in assay [2]; at most 0.125 µg/mL in assay [3]; at most 0.125 µg/mL in assay [4]; 0.5 µg/mL (≈ 0.771 µM) in assay [5]; 0.25 µg/mL (≈ 0.385 µM) in assay [6]. Further, the MIC in assay [7] is at most 0.125 µg/mL.

As for `CC(C)(ON=C(C(=O)NC1C(=O)N2C(C(=O)O)=C(COC(=O)c3cccc(NC(=O)CCCN)c3)C[S+]([O-])C12)c1csc(N)n1)C(=O)O` (stereo not drawn) [42 687], the MIC turned out to be 8 µg/mL (≈ 11.3 µM) in assay [1], 4 µg/mL (≈ 5.67 µM) in assay [4], 2 µg/mL (≈ 2.83 µM) in assay [6] and 1 µg/mL (≈ 1.42 µM) in assay [7].

`Cc1c(NC(=O)CCN)cccc1C(=O)OCC1=C(C(=O)O)N2C(=O)C(NC(=O)C(=NOC(C)(C)C(=O)O)c3csc(N)n3)C2[S+]([O-])C1` (stereo not drawn) [42 586]: the minimal inhibitory concentration (MIC) in assay [1] stood at 4 µg/mL (≈ 5.67 µM); in assay [4], 16 µg/mL (≈ 22.7 µM); in assay [6], 0.25 µg/mL (≈ 0.354 µM); in assay [7] it was 0.25 µg/mL (≈ 0.354 µM).
